This data set deals with Dkk1-LRP5-TCF-Luciferase. Briefly: Functional Dkk1-LRP5-TCF-Luciferase Assay in U2OS Cells. Conditions: for pEC50 / fold induction at 2 µM / fold induction at 20 µM: Homo sapiens, U2OS; for fold induction at 2 µM: read-out: B = TCF ACTIVITY/DMSO CONTROL Fold induction @ 2.0 uM, 2.0 uM compound; for fold induction at 20 µM: read-out: C = TCF ACTIVITY/DMSO CONTROL Fold induction @ 20.0 uM, 20.0 uM compound; for A = MAX FOLD Induction/DMSO CONTROL: maximum fold induction over DMSO control.

What is called pEC50 is the negative decadic logarithm of the EC50, by convention in mol/L.

The structures appear in SMILES notation. pEC50: −log10 of the molar value.

With `NC(=O)N[C@@H]1CCN(c2nccc(-c3ccc4ccccc4c3)n2)C1` [N-{(3R)-1-[4-(2-naphthyl)pyrimidin-2-yl]pyrrolidin-3-yl}urea], the pEC50 was 5.37, the fold induction at 2 µM came to 2.09, the fold induction at 20 µM stood at 1.63 and the “A = MAX FOLD Induction/DMSO CONTROL” value was 1.550 fold. `CN1C[C@@H]2C[C@H]1CN2[C@@H]1CCN(c2nccc(-c3ccc4ccccc4c3)n2)C1` [(1S,4S)-2-methyl-5-{(3R)-1-[4-(2-naphthyl)pyrimidin-2-yl]pyrrolidin-3-yl}-2,5-diazabicyclo[2.2.1]heptane]: the fold induction at 2 µM was determined as 1.5. In the case of `CN(C)C(=O)N1CCC(CNc2nccc(-c3ccc4ccccc4c3)n2)CC1` [N,N-dimethyl-4-({[4-(2-naphthyl)pyrimidin-2-yl]amino}methyl)piperidine-1-carboxamide], the fold induction at 2 µM turned out to be 0.87 and the fold induction at 20 µM stood at 1.24. For `CN1CCN(C[C@@H]2CCN(c3nccc(-c4ccc5ccccc5c4)n3)C2)CC1` [2-{(3S)-3-[(4-methylpiperazin-1-yl)methyl]pyrrolidin-1-yl}-4-(2-naphthyl)pyrimidine], the fold induction at 2 µM is 1.8.

For the compound `CN(C)[C@@H]1CCN(C(=O)[C@@H]2CCCN2c2nccc(-c3ccc4ccccc4c3)n2)C1` [(3R)—N,N-dimethyl-1-{1-[4-(2-naphthyl)pyrimidin-2-yl]-L-prolyl}pyrrolidin-3-amine], the fold induction at 2 µM was found to be 1.1, the fold induction at 20 µM came to 4.43 and the “A = MAX FOLD Induction/DMSO CONTROL” value stood at 2.335 fold. Turning to `N[C@@H]1CCN([C@@H]2CCN(c3nccc(-c4ccc5ccccc5c4)n3)C2)C1` [(3R,3′R)-1′-[4-(2-naphthyl)pyrimidin-2-yl]-1,3′-bipyrrolidin-3-amine], the fold induction at 2 µM was determined as 1.39.

With `NC[C@H]1C[C@@H]2C[C@H]1CN2c1nccc(-c2ccc3ccccc3c2)n1` [1-{(1R,4R,5S)-2-[4-(2-naphthyl)pyrimidin-2-yl]-2-azabicyclo[2.2.1]hept-5-yl}methanamine], the fold induction at 2 µM stood at 1.8. Take `NC[C@@H]1C[C@H]2C[C@@H]1CN2c1nccc(-c2ccc3ccccc3c2)n1` [1-{(1S,4S,5R)-2-[4-(2-naphthyl)pyrimidin-2-yl]-2-azabicyclo[2.2.1]hept-5-yl}methanamine]: the fold induction at 2 µM came out at 1.1.

Take `COc1ccc(CNc2nccc(-c3ccc4ccccc4c3)n2)cc1` [N-(4-methoxybenzyl)-4-(2-naphthyl)pyrimidin-2-amine]: the fold induction at 20 µM is 1.12. Same read-out and setting: as for `CN(C)S(=O)(=O)N1CCCN(c2nccc(-c3ccc4ccccc4c3)n2)CC1` [N,N-dimethyl-4-[4-(2-naphthyl)pyrimidin-2-yl]-1,4-diazepane-1-sulfonamide], the figure is 0.63. As for `c1ccc2cc(-c3ccnc(N4CCN(CCN5CCOCC5)CC4)n3)ccc2c1` [4-(2-{4-[4-(2-naphthyl)pyrimidin-2-yl]piperazin-1-yl}ethyl)morpholine], the pEC50 is 5.34, the fold induction at 2 µM stood at 1.53, the fold induction at 20 µM was determined as 3.49 and the “A = MAX FOLD Induction/DMSO CONTROL” value is listed as 2.400 fold. The “C = TCF ACTIVITY/DMSO CONTROL Fold induction @ 20.0 uM” value (20.0 uM compound, 20 µM) stood at 3.000 fold.

For `COC(=O)C(NC(=O)OC(C)(C)C)=C1CCN(c2nccc(-c3ccc4ccccc4c3)n2)CC1` [methyl [(tert-butoxycarbonyl)amino]{1-[4-(2-naphthyl)pyrimidin-2-yl]piperidin-4-ylidene}acetate], the fold induction at 2 µM was found to be 1.01 and the fold induction at 20 µM came out at 1.24. Take `CC(C)(C)NC(=O)[C@@H]1CCCN1c1nccc(-c2ccc3ccccc3c2)n1` [N-tert-butyl-1-[4-(2-naphthyl)pyrimidin-2-yl]-L-prolinamide]: the fold induction at 2 µM worked out at 1.94. Regarding `COC(=O)C1CCN(c2nccc(-c3ccc4ccccc4c3)n2)CC1` [methyl 1-[4-(2-naphthyl)pyrimidin-2-yl]piperidine-4-carboxylate], the fold induction at 20 µM is 1.39. As for `c1ccc2cc(-c3ccnc(NCC4CCNCC4)n3)ccc2c1` [4-(2-naphthyl)-N-(piperidin-4-ylmethyl)pyrimidin-2-amine], the fold induction at 2 µM was determined as 1.33, the fold induction at 20 µM was 1.36 and the “A = MAX FOLD Induction/DMSO CONTROL” value amounted to 6.120 fold. On to `CN(C)C(=O)N1CC[C@@H](Nc2nccc(-c3ccc4ccccc4c3)n2)C1` [(3R)—N,N-dimethyl-3-{[4-(2-naphthyl)pyrimidin-2-yl]amino}pyrrolidine-1-carboxamide], for which the fold induction at 20 µM was 1.33. In the case of `CCNC(=O)N1CC[C@@H](Nc2nccc(-c3ccc4ccccc4c3)n2)C1` [(3R)—N-ethyl-3-{[4-(2-naphthyl)pyrimidin-2-yl]amino}pyrrolidine-1-carboxamide], the fold induction at 20 µM is 2.01 and the “A = MAX FOLD Induction/DMSO CONTROL” value is recorded as 1.460 fold. As to `CN(CCN(C)S(=O)(=O)N(C)C)[C@@H]1CCN(c2nccc(-c3ccc4ccccc4c3)n2)C1` [N,N,N′-trimethyl-N′-[2-(methyl{(3R)-1-[4-(2-naphthyl)pyrimidin-2-yl]pyrrolidin-3-yl}amino)ethyl]sulfamide], the fold induction at 2 µM is 1.3. For `CC(N)C1CCN(c2nccc(-c3ccc4ccccc4c3)n2)CC1` (stereo not drawn) [1-{1-[4-(2-naphthyl)pyrimidin-2-yl]piperidin-4-yl}ethanamine], the negative logarithm of the EC50 (pEC50) is 5.96, the fold induction at 2 µM was 2.33, the fold induction at 20 µM was 0.006 and the “A = MAX FOLD Induction/DMSO CONTROL” value was determined as 2.891 fold.

Consider `N[C@H]1CCN([C@@H]2CCN(c3nccc(-c4ccc5ccccc5c4)n3)C2)C1` [(3S,3′R)-1′-[4-(2-naphthyl)pyrimidin-2-yl]-1,3′-bipyrrolidin-3-amine], for which the fold induction at 2 µM worked out at 1.2. On to `c1ccc2cc(-c3ccnc(N4CCC(CN5CCCCC5)C4)n3)ccc2c1` (stereo not drawn) [4-(2-naphthyl)-2-[3-(piperidin-1-ylmethyl)pyrrolidin-1-yl]pyrimidine], for which the fold induction at 2 µM was 1.66 and the fold induction at 20 µM was 0.01. For the compound `CN(C)S(=O)(=O)N1CCC(CNc2nccc(-c3ccc4ccccc4c3)n2)CC1` [N,N-dimethyl-4-({[4-(2-naphthyl)pyrimidin-2-yl]amino}methyl)piperidine-1-sulfonamide], the fold induction at 20 µM was 1.21. In the case of `CN(c1nccc(-c2ccc3ccccc3c2)n1)[C@H]1CC[C@@H](CN)CC1` [N-[cis-4-(aminomethyl)cyclohexyl]-N-methyl-4-(2-naphthyl)pyrimidin-2-amine], the fold induction at 2 µM is 2.7. Turning to `CNC[C@H]1CCN(c2nccc(-c3ccc4ccccc4c3)n2)C1` [N-methyl-1-{(3R)-1-[4-(2-naphthyl)pyrimidin-2-yl]pyrrolidin-3-yl}methanamine], the fold induction at 2 µM was 2.76, the fold induction at 20 µM stood at 0.01 and the “A = MAX FOLD Induction/DMSO CONTROL” value was found to be 1.030 fold. With `O=CN1CC[C@H](Nc2nccc(-c3ccc4ccccc4c3)n2)C1` [(3S)-3-{[4-(2-naphthyl)pyrimidin-2-yl]amino}pyrrolidine-1-carbaldehyde], the pEC50 is 5.17, the fold induction at 2 µM stood at 1.8, the fold induction at 20 µM was found to be 3.51 and the “A = MAX FOLD Induction/DMSO CONTROL” value was found to be 3.165 fold.

The record behind these values is patent US20090054392A1, “NAPHTHYLPYRIMIDINE, NAPHTHYLPYRAZINE AND NAPHTHYLPYRIDAZINE ANALOGS AND THEIR USE AS AGONISTS OF THE WNT-BETA-CATENIN CELLULAR MESSAGING SYSTEM” (Wyeth, priority 2007, published 2009).
